Assays:
male c57BL/6 mice [1] = experiment: Oral Glucose Tolerance Test (OGTT): glucose and active GLP-1; format: in vivo, mouse; settings: for Active GLP-1 Fold Increase / Glucose % Lowering: vs vehicle
Description: Maintain mice under approved Animal Care and Use protocols for Lilly Research Laboratories and house on a 12 hour light cycle from 6 am to 6 pm. For the OGTT, fast the mice between 3 & 4 pm. The following day at 6 am, measure body weights and collect baseline blood samples via tail vein for glucose (Roche Aviva glucometer). […] No. […] No. DPP-4)/aprotinin (Fisher BioReagents, Cat. No. BP250310), store on wet ice, spin down (3500 rpm, 4° C.), draw off plasma, plate and freeze. […] No. […]-2). Calculate area under the curve (AUC) values.

mouse SSTR5 = target: T1, mouse SSTR5 (Mus musculus, UniProt O08858); experiment: Somatostatin binding assay (SPA, 125I-Somatostatin 14), mouse SSTR5 membranes; settings: transiently expressed mouse SSTR5 membranes, 0.25 nM [125I]-Somatostatin 14
T1 construct: expressed in transfected cells; host or cells: probably CHO ('CHO-SSTR5 receptors')
T1 sequence (O08858 1-362): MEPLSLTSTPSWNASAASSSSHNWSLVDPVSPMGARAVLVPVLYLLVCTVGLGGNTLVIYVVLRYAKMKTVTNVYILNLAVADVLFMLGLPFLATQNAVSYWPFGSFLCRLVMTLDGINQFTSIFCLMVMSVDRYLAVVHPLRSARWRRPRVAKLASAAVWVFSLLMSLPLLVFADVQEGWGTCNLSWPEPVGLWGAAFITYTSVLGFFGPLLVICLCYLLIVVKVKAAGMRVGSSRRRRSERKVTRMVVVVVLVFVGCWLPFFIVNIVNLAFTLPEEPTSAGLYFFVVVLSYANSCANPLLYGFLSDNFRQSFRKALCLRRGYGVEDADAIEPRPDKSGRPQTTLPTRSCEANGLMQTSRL
Description: (§1) The antagonistic effect of the compound of Example 2 can be evaluated in human and mouse SSTR5 binding assays utilizing a scintillation proximity assay (SPA) format for a concentration response curve (CRC) (^125I-Somatostatin 14 binding to CHO-SSTR5 receptors). Perform measurement of SSTR5 binding utilizing either human somatostatin 5 membranes (manufactured by Perkin Elmer (ES-522-M400UA)) at a concentration of 0.4 μg/well or transiently expressed mouse SSTR5 membranes (generated in-house using Lipofectamine 2000 according to the manufacture's protocol (Life Technologies)) at a concentration of 8 μg/well. Homogenize membranes or dilute in buffer (prepare buffer from 25 mM HEPES (manufactured by HyClone), 5 mM MgCl2 (manufactured by Sigma), 1 mM CaCl2 (manufactured by Sigma), 0.5% BSA, pH 7.4 (manufactured by Gibco)).

male c57BL/6 mice [2] = experiment: GLP-1 secretion in vivo, 12 hour PK/PD study; design: species or system mouse; settings: for Active GLP-1 AUC Fold Increase: vs vehicle
Description: Use male c57BL/6 mice from Harlan Laboratories at 8-9 weeks of age to evaluate the effects of the compound of Example 2 on GLP-1 Secretion in vivo during a 12 hour pharmacokinetic/pharmacodynamic (PK/PD) study. Maintain mice under approved Animal Care and Use protocols for Lilly Research Laboratories and house on a 12 hour light cycle from 6 am to 6 pm. The day prior to the evaluation, fast the mice at 6 pm. The following day at 6 am, measure body weight and administer vehicle (HEC 1%/Tween 80 0.25%/Antifoam 0.05%) or the compound of Example 2 alone in vehicle (HEC 1%/Tween 80 0.25%/Antifoam 0.05% suspension). Collect blood samples for measurement of active GLP-1 levels and plasma exposure (˜150 μl into EDTA coated Sarstedt Microvette® CB300 K2E tubes) at 0.25, 0.5, 1, 2, 4, 6, 9, 12 hours post-administration (only two samples collected from each mouse, euthanizing immediately following the second blood collection) Immediately after collecting the blood, preserve active GLP-1 samples with 5 μl of a mixture of DPP4 inhibitor (Bio Trend Cat. No. DPP-4)/aprotinin (Fisher BioReagents, Cat. No. BP250310), store on wet ice, spin down (3500 rpm, 4° C.). Draw off plasma, plate and freeze. Store GLP-1 samples at −80° C. until they can be analyzed utilizing a Meso Scale Discovery Active GLP-1 (v2) Kit (Cat. No. K150JWC-2). Calculate area under the curve (AUC) values.

hSSTR5 [3] = target: T2, hSSTR5 (Homo sapiens, UniProt P35346); experiment: β-Arrestin whole cell functional assay (PathHunter CHO-K1 hSSTR5 β-arrestin cells); format: cell-based; design: host or cells: CHO-K1 (PathHunter engineered line); settings: EC80 agonist 37.5 nM SST14
Description: A β-arrestin whole cell, functional assay, utilizing U20S cells (human osteosarcoma cells), can directly measure effects of the compound of Example 2 on GPCR activity by determining its effects on the interaction of β-arrestin with the activated GPCR. Perform the CRC measurement of β-arrestin activity utilizing PathHunter CHO-K1 hSSTR5 β-arrestin cells from DiscoveRx (93-0402C2). Plate cells at a concentration of 5K/well in 50 μl of assay plating media in 384-well White Plates with opaque bottom (manufactured by Corning (3570)) and incubate overnight at 37° C./5% CO2. Prepare test solutions by diluting 3 μl of Example 2 with 27 μl of DMSO for a step down dilution. Mix the diluted plate of the current invention on a plate shaker for five minutes. Wash cells with 50 μl of PBS (manufactured by HyClone) three times using a plate washer. After washing, use a Wellmate to add 15 μl of assay buffer (assay buffer prepared from HBSS (manufactured by HyClone), 20 mM HEPES (manufactured by HyClone) with 0.1% BSA (manufactured by Gibco)) to the cells followed by 100 nl of the present invention serial dilution. Incubate the cells at 37° C./5% CO2 for 30 min.

hSSTR5 [4] = target: T2, hSSTR5; experiment: Somatostatin binding assay (SPA, 125I-Somatostatin 14), human SSTR5 membranes; design: purchased Perkin Elmer ES-522-M400UA; host or cells: CHO (the text speaks of CHO-SSTR5 receptors); settings: human somatostatin 5 membranes, 0.25 nM [125I]-Somatostatin 14
Description: as §1

[5] = Example 1 0.3 mg/kg orally 90 min before glucose bolus
[6] = Example 1 30 mg/kg orally 90 min before glucose bolus
[7] = Sitagliptin 10 mg/kg orally 90 min before glucose bolus

T2 sequence (P35346 whole entry): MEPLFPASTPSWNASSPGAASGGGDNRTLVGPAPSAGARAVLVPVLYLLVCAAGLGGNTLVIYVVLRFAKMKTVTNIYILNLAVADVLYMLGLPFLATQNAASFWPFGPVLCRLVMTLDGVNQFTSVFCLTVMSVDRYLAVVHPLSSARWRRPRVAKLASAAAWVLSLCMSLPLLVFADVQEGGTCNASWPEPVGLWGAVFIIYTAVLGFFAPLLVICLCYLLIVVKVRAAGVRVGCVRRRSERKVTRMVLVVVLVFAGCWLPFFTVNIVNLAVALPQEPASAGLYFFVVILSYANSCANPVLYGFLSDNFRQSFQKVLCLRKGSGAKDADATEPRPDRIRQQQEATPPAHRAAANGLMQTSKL

SMILES: CCOc1cc(CN2CCC3(CC2)CN(c2ccc(C(=O)O)cc2)C(=O)N3)c(C2CC2)cc1C.Cl [Example 1, 4-[8-[(2-Cyclopropyl-5-ethoxy-4-methyl-phenyl)methyl]-2-oxo-1,3,8-triazaspiro[4.5]decan-3-yl]benzoic acid hydrochloride]
- Active GLP-1 AUC (0-60 min) (male c57BL/6 mice [1]; [5]): 93.2 ± 15.5 pg/mL-min
- Glucose AUC (0-60 min) (male c57BL/6 mice [1]; [5]): 7441 ± 612 mg·min/dL
- Active GLP-1 Fold Increase (male c57BL/6 mice [1]; Example 1 0.3 mg/kg orally): 1.8
- Glucose % Lowering (male c57BL/6 mice [1]; Example 1 0.3 mg/kg orally): 23%
- Active GLP-1 AUC (0-60 min) (male c57BL/6 mice [1]; [6]): 151 ± 14.0 pg/mL-min
- Glucose AUC (0-60 min) (male c57BL/6 mice [1]; [6]): 5674 ± 360 mg·min/dL
- Active GLP-1 Fold Increase (male c57BL/6 mice [1]; Example 1 30 mg/kg orally): 2.9
- Glucose % Lowering (male c57BL/6 mice [1]; Example 1 30 mg/kg orally): 41%
- effect on GLP-1 in OGTT (in words) (male c57BL/6 mice [1]; OGTT in mice): increased GLP-1 activity
- effect on glucose in OGTT (in words) (male c57BL/6 mice [1]; OGTT in mice): glucose lowering effect

SMILES: CCOc1cc(CN2CCC3(CC2)CN(c2ccc(C(=O)O)cc2)C(=O)N3)c(C2CC2)cc1C [Example 2, 4-[8-[(2-Cyclopropyl-5-ethoxy-4-methyl-phenyl)methyl]-2-oxo-1,3,8-triazaspiro[4.5]decan-3-yl]benzoic acid hydrate]
- Ki (mouse SSTR5): 4870 pM
- Active GLP-1 AUC (0-12 hours) (male c57BL/6 mice [2]; 0.3 mg/kg, fasted mice): 60.2 ± 2.9 pg/mL-hour
- Active GLP-1 AUC Fold Increase (male c57BL/6 mice [2]; 0.3 mg/kg): 1.9
- Active GLP-1 AUC (0-12 hours) (male c57BL/6 mice [2]; 1 mg/kg, fasted mice): 71.2 ± 3.3 pg/mL-hour
- Active GLP-1 AUC Fold Increase (male c57BL/6 mice [2]; 1 mg/kg): 2.2
- Active GLP-1 AUC (0-12 hours) (male c57BL/6 mice [2]; 3 mg/kg, fasted mice): 72.5 ± 4.3 pg/mL-hour
- Active GLP-1 AUC Fold Increase (male c57BL/6 mice [2]; 3 mg/kg): 2.3
- Active GLP-1 AUC (0-12 hours) (male c57BL/6 mice [2]; 10 mg/kg, fasted mice): 87.3 ± 3.8 pg/mL-hour
- Active GLP-1 AUC Fold Increase (male c57BL/6 mice [2]; 10 mg/kg): 2.7
- Active GLP-1 AUC (0-12 hours) (male c57BL/6 mice [2]; 30 mg/kg, fasted mice): 86.3 ± 4.6 pg/mL-hour
- Active GLP-1 AUC Fold Increase (male c57BL/6 mice [2]; 30 mg/kg): 2.7
- effect on active GLP-1 (in words) (male c57BL/6 mice [2]; fasted mice, no glucose load): non-glucose dependent effect to increase active GLP-1
- IC50 (hSSTR5 [3]): 810 pM
- Ki (hSSTR5 [4]): 540 pM

SMILES: N[C@@H](CC(=O)N1CCn2c(nnc2C(F)(F)F)C1)Cc1cc(F)c(F)cc1F [Sitagliptin, sitagliptin, reference compound]
- Active GLP-1 AUC (0-60 min) (male c57BL/6 mice [1]; [7]): 343 ± 73 pg/mL-min
- Glucose AUC (0-60 min) (male c57BL/6 mice [1]; [7]): 5308 ± 237 mg·min/dL
- Active GLP-1 Fold Increase (male c57BL/6 mice [1]; Sitagliptin 10 mg/kg orally): 6.6
- Glucose % Lowering (male c57BL/6 mice [1]; Sitagliptin 10 mg/kg orally): 45%
